The structures appear in SMILES notation.

The test system of one experiment is T1, OfABCB2.
T1 construct: full-length cds (3984 bp, 1327 aa), baculovirus pFBD in Sf9 cells, isolated cell membranes; no tag mentioned
The experiment can be described thus: vanadate-sensitive ATPase assay, phosphate release, Sf9 membranes. The class given is biochemical, Oncopeltus fasciatus. To be noted: substrate-stimulated ATPase; difference without / with 500 µM vanadate; 0-800 µM in 2% DMSO; 37 °C; read-out: Km Values [μM] ± SE / OfABCB2. The source says: vanadate-sensitive ATPase assay, phosphate release, Sf9 membranes on OfABCB2

The subject of the next experiment is OfABCB1. As to conditions: read-out: Km Values [μM] ± SE / OfABCB1; substrate-stimulated ATPase; difference without / with 500 µM vanadate; 0-800 µM in 2% DMSO; 37 °C. The source says: vanadate-sensitive ATPase assay, phosphate release, Sf9 membranes on OfABCB1

On to `C[C@H]1O[C@@H](O[C@H]2[C@@H](O)C[C@H](O[C@H]3[C@@H](O)C[C@H](O[C@H]4CC[C@@]5(C)[C@H](CC[C@@H]6[C@@H]5C[C@@H](O)[C@]5(C)[C@@H](C7=CC(=O)OC7)CC[C@]65O)C4)O[C@@H]3C)O[C@@H]2C)C[C@H](O)[C@@H]1O` [digoxin], for which the Km in the experiment on OfABCB2 was determined as 9.33 ± 2.43 µM; in the experiment with OfABCB1, 33.7 ± 11.4 µM.

As for `C[C@@H]1O[C@@H](O[C@H]2C[C@@H](O)[C@]3(CO)[C@H]4[C@H](O)C[C@]5(C)[C@@H](C6=CC(=O)OC6)CC[C@]5(O)[C@@H]4CC[C@]3(O)C2)[C@H](O)[C@H](O)[C@H]1O` [ouabain], in the experiment on OfABCB2, the Km amounted to 7.05 ± 2.61 µM.
